Results as given in ChEMBL document CHEMBL1151290, “Chemical constituents of Brazilian propolis and their cytotoxic activities” (1998).
In brackets after ≈: the same amount, converted by molar mass.

How the values were obtained:
HT-1080 = assay: Cytotoxicity against human HT1080 cells after 24 hrs by MTT assay; format: functional; details: HT-1080, 24 h, read-out: ED50 (the source's name)
[1] = Cytotoxicity against mouse 26-L5 cells after 24 hrs by MTT assay; format: functional; details: read-out: ED50 (the source's name)

| Compound | EC50 (HT-1080) | EC50 [1] |
| --- | --- | --- |
| C=C(CO)[C@H]1Cc2cc(C(C)=O)c(O)cc2O1 | 45.5 µg/mL (≈ 194 µM) | 57.1 µg/mL (≈ 244 µM) |
| C=C1CC[C@@H]2[C@](C)(CCC[C@]2(C)C(=O)O)[C@H]1CC/C(C)=C/COC(C)=O | 70.1 µg/mL (≈ 193 µM) | 73.3 µg/mL (≈ 202 µM) |
| CC(C)=CCc1cc(/C=C/C(=O)O)cc2c1OC(C)(C)C(O)C2 (stereo unspecified) | 71.5 µg/mL (≈ 226 µM) | 77.1 µg/mL (≈ 244 µM) |
| COc1ccc([C@H]2Oc3cc(O)cc(O)c3C(=O)[C@@H]2O)cc1 | 27 µg/mL (≈ 89.2 µM) | 71 µg/mL (≈ 235 µM) |
| C=C1CC[C@@H]2[C@](C)(CCC[C@]2(C)C(=O)O)[C@H]1CC/C(C)=C/C(=O)OC | 72.8 µg/mL (≈ 209 µM) | > 100 µg/mL |
| C=C1CC[C@@H]2[C@](C)(CCC[C@]2(C)C(=O)O)[C@H]1CC/C(C)=C/C(=O)O [AGATHIC ACID] | 75.4 µg/mL (≈ 226 µM) | 95.9 µg/mL (≈ 287 µM) |
| CC(C)=CCc1cc(/C=C/C(=O)O)cc(CC=C(C)C)c1O [ARTEPILLIN] | 45.5 µg/mL (≈ 151 µM) | 59.3 µg/mL (≈ 197 µM) |
| CC(C)=CCc1cc(/C=C/C(=O)O)ccc1OC(=O)CCc1ccccc1 [BACCHARIN] | 25.9 µg/mL (≈ 71.2 µM) | 77.9 µg/mL (≈ 214 µM) |
| COc1ccc(-c2oc3cc(O)c(OC)c(O)c3c(=O)c2O)cc1 [BETULETOL] | 5.83 µg/mL (≈ 17.7 µM) | 4.95 µg/mL (≈ 15 µM) |
| COc1cc(/C=C/C=O)ccc1O [CONIFERYL ALDEHYDE] | 4.05 µg/mL (≈ 22.7 µM) | 10.4 µg/mL (≈ 58.6 µM) |
| CC(C)=CCc1cc(/C=C/C(=O)O)cc2c1OC(C)(C)C=C2 [CULIFOLIN] | 46.9 µg/mL (≈ 157 µM) | 50.2 µg/mL (≈ 168 µM) |
| C=C[C@](C)(O)CC[C@H]1C(=C)CC[C@@H]2[C@]1(C)CCC[C@]2(C)C(=O)O [CUPRESSICACID] | 94.9 µg/mL (≈ 296 µM) | > 100 µg/mL |
| COc1cc([C@H]2Oc3c(OC)cc(/C=C/COC(C)=O)cc3[C@@H]2COC(C)=O)ccc1O [DIMERICCONIFERYLACETATE] | 38.9 µg/mL (≈ 88 µM) | 39.9 µg/mL (≈ 90.1 µM) |
| COc1cccc2c1C(=O)c1c(O)c3c(c(O)c1C2=O)C[C@@](O)(C(=O)CO)C[C@@H]3O[C@H]1C[C@H](N)[C@H](O)[C@H](C)O1.Cl [DOXORUBICIN HYDROCHLORIDE] | 0.034 µg/mL | 0.015 µg/mL |
| COc1ccc(-c2oc3cc(O)cc(O)c3c(=O)c2OC)cc1 [ERMANIN] | 2.3 µg/mL (≈ 7.32 µM) | 7.64 µg/mL (≈ 24.3 µM) |
| C=C1CC[C@@H]2[C@](C)(CCC[C@]2(C)C(=O)O)[C@H]1CC/C(C)=C/CO [ISOCUPRESSIC ACID] | 72.9 µg/mL (≈ 228 µM) | 63.5 µg/mL (≈ 198 µM) |
| COc1ccc(-c2oc3cc(O)cc(O)c3c(=O)c2O)cc1 [KAEMPFERIDE] | 2.91 µg/mL (≈ 9.69 µM) | 5.95 µg/mL (≈ 19.8 µM) |
| C=C(C)[C@H]1Cc2cc(C(C)=O)ccc2O1 [TREMETONE] | 57.4 µg/mL (≈ 284 µM) | 58.1 µg/mL (≈ 287 µM) |
